These are literature values, as cited in patent US11439578B2, “Agent for dyeing hair, containing at least one organic silicon compound, a coloring compound and a film-forming, hydrophilic polymer” (Henkel AG & Co. KGaA, priority 2018, dated 2022).

The conditions of the data set: about 25° C.

Regarding `Nc1cc(S(=O)(=O)[O-])cc2cc(S(=O)(=O)[O-])c(N=Nc3ccccc3)c(O)c12.[Na+].[Na+]` [Acid Red 33, disodium salt of 5-amino-4-hydroxy-3-(phenylazo)-naphthalene-2,7-disulphonate], the solubility in water entry was “about 2.5 g/L”. On to `O=C([O-])c1c(Cl)c(Cl)c(Cl)c(Cl)c1-c1c2c(Br)cc(=O)c(Br)c-2oc2c(Br)c(O)cc(Br)c12.O=C([O-])c1c(Cl)c(Cl)c(Cl)c(Cl)c1-c1c2c(Br)cc(=O)c(Br)c-2oc2c(Br)c(O)cc(Br)c12.[Na+].[Na+]` [Acid Red 92, disodium salt of 3,4,5,6-tetrachloro-2-(1,4,5,8-tetrabromo-6-hydroxy-3-oxoxanthen-9-yl)benzoic acid], for which the solubility in water result was “greater than 10 g/L”.

`O=C([O-])C1=NN(c2ccc(S(=O)(=O)[O-])cc2)C(=O)C1N=Nc1ccc(S(=O)(=O)[O-])cc1.[Na+].[Na+].[Na+]` (centres unmarked) [Acid Yellow 23, trisodium salt of 4,5-dihydro-5-oxo-1-(4-sulfophenyl)-4-((4-sulfophenyl)azo)-1H-pyrazole-3-carboxylic acid]: the “solubility in water (in words)” value was “highly soluble in water”. Take `CCN(Cc1cccc(S(=O)(=O)[O-])c1)c1ccc(C(=C2C=CC(=[N+](CC)Cc3cccc(S(=O)(=O)[O-])c3)C=C2)c2ccccc2S(=O)(=O)[O-])cc1.[Na+].[Na+]` [Acid Blue 9]: the solubility in water entry is listed as “more than 20 % by weight”. Regarding `O=S(=O)([O-])c1ccc(N=Nc2c(O)ccc3ccccc23)cc1.[Na+]` [Acid Orange 7, sodium salt of 4-[(2-hydroxy-1-naphthyl)azo]benzene sulphonate], the solubility in water result was “more than 7 g/L”.
